Data published in ChEMBL document CHEMBL3875152, “Synthesis and evaluation against Leishmania amazonensis of novel pyrazolo[3,4-d]pyridazinone-N-acylhydrazone-(bi)thiophene hybrids” (Eur J Med Chem, 2016).

Columns and labels:
[1] = Selectivity index, ratio of CC50 for mouse J774A1 cells to IC50 for Leishmania amazonensis WHOM/BR/75/JOSEFA promastigotes; format: functional, J774.A1
[2] = Cytotoxicity against mouse L929 cells assessed as decrease in cell viability after 48 hrs by MTT method; format: toxicity
[3] = Cytotoxicity against mouse J774A1 cells assessed as decrease in cell viability after 48 hrs by MTT method; format: toxicity, J774.A1
Leishmania amazonensis [4] = experiment: Antileishmanial activity against Leishmania amazonensis WHOM/BR/75/JOSEFA promastigotes after 72 hrs by Neubauer chamber method; format: functional
Leishmania amazonensis [5] = experiment: Antileishmanial activity against Leishmania amazonensis WHOM/BR/75/JOSEFA axenic amastigotes after 72 hrs by Neubauer chamber method; format: functional
[6] = Selectivity index, ratio of CC50 for mouse L929 cells to IC50 for Leishmania amazonensis WHOM/BR/75/JOSEFA promastigotes; format: functional
[7] = Selectivity index, ratio of CC50 for mouse J774A1 cells to IC50 for Leishmania amazonensis WHOM/BR/75/JOSEFA axenic amastigotes; format: functional, J774.A1
[8] = Selectivity index, ratio of CC50 for mouse L929 cells to IC50 for Leishmania amazonensis WHOM/BR/75/JOSEFA axenic amastigotes; format: functional

Row | Structure (SMILES) | IC50 (Leishmania amazonensis [4]) | further results
1 | O=C(N/N=C/c1ccc(-c2cccs2)s1)c1n[nH]c(=O)c2c1cnn2-c1ccccc1 | 10.8 µM | Ratio CC50/IC50 [1]: 10.6; CC50 at 48 h [2]: < 1 µM; CC50 at 48 h [3]: 114 µM; IC50 (Leishmania amazonensis [5]): > 100 µM
2 | O=C(N/N=C/c1cccs1)c1n[nH]c(=O)c2[nH]ncc12 | > 100 µM | –
3 | O=C(N/N=C/c1ccc(-c2cccs2)s1)c1n[nH]c(=O)c2[nH]ncc12 | > 100 µM | –
4 | O=C(N/N=C/c1cccs1)c1n[nH]c(=O)c2c1cnn2-c1ccc(Cl)cc1 | > 100 µM | –
5 | O=C(N/N=C/c1cccs1)c1nn(-c2ccccc2)c(=O)c2c1cnn2-c1ccccc1 | 85 µM | Ratio CC50/IC50 [1]: 1.25; CC50 at 48 h [2]: 186 µM; Ratio CC50/IC50 [6]: 2.19; Ratio CC50/IC50 [7]: 3.25; Ratio CC50/IC50 [8]: 5.68; CC50 at 48 h [3]: 106 µM; IC50 (Leishmania amazonensis [5]): 32.7 µM
6 | O=C(N/N=C/c1cccs1)c1nn(-c2ccc(Cl)cc2)c(=O)c2c1cnn2-c1ccc(Cl)cc1 | > 100 µM | –
7 | O=C(N/N=C/c1ccc(-c2cccs2)s1)c1n[nH]c(=O)c2c1cnn2-c1ccc(Cl)cc1 | > 100 µM | –
8 | NNC(=O)c1n[nH]c(=O)c2c1cnn2-c1ccc(Cl)cc1 | > 100 µM | –
9 | NNC(=O)c1nn(-c2ccc(Cl)cc2)c(=O)c2c1cnn2-c1ccccc1 | > 100 µM | –
10 | NNC(=O)c1n[nH]c(=O)c2[nH]ncc12 | > 100 µM | –
11 | C[C@@H]1[C@H](O)[C@@H](C)/C=C/C=C/C=C/C=C/C=C/C=C/C=C/[C@H](O[C@@H]2O[C@H](C)[C@@H](O)[C@H](N)[C@@H]2O)C[C@@H]2O[C@](O)(C[C@@H](O)C[C@@H](O)[C@H](O)CC[C@@H](O)C[C@@H](O)CC(=O)O[C@H]1C)C[C@H](O)[C@H]2C(=O)O [AMPHOTERICIN B] | 0.64 µM | Ratio CC50/IC50 [1]: 26.25; CC50 at 48 h [2]: 79.1 µM; Ratio CC50/IC50 [6]: 123.64; CC50 at 48 h [3]: 16.8 µM
12 | NNC(=O)c1nn(-c2ccc(Cl)cc2)c(=O)c2c1cnn2-c1ccc(Cl)cc1 | > 100 µM | –
13 | O=C(N/N=C/c1cccs1)c1nn(-c2ccccc2)c(=O)c2c1cnn2-c1ccc(Cl)cc1 | > 100 µM | –
14 | O=C(N/N=C/c1cccs1)c1nn(-c2ccc(Cl)cc2)c(=O)c2c1cnn2-c1ccccc1 | > 100 µM | –
15 | O=C(N/N=C/c1ccc(-c2cccs2)s1)c1nn(-c2ccc(Cl)cc2)c(=O)c2c1cnn2-c1ccccc1 | > 100 µM | –
16 | CN(/N=C/c1ccc(-c2cccs2)s1)C(=O)c1nn(-c2ccccc2)c(=O)c2c1cnn2-c1ccccc1 | > 100 µM | –
17 | NNC(=O)c1nn(-c2ccccc2)c(=O)c2c1cnn2-c1ccccc1 | > 100 µM | –
18 | O=C(N/N=C/c1cccs1)c1n[nH]c(=O)c2c1cnn2-c1ccccc1 | > 100 µM | –
19 | O=C(N/N=C/c1ccc(-c2cccs2)s1)c1nn(-c2ccccc2)c(=O)c2c1cnn2-c1ccc(Cl)cc1 | > 100 µM | –
20 | O=C(N/N=C/c1ccc(-c2cccs2)s1)c1nn(-c2ccccc2)c(=O)c2c1cnn2-c1ccccc1 | 3.63 µM | Ratio CC50/IC50 [1]: >52.71; CC50 at 48 h [2]: 77.4 µM; Ratio CC50/IC50 [6]: 21.33; Ratio CC50/IC50 [7]: >82.48; Ratio CC50/IC50 [8]: 33.38; CC50 at 48 h [3]: > 191 µM; IC50 (Leishmania amazonensis [5]): 2.32 µM
21 | O=C(N/N=C/c1ccc(-c2cccs2)s1)c1nn(-c2ccc(Cl)cc2)c(=O)c2c1cnn2-c1ccc(Cl)cc1 | > 100 µM | –
22 | NNC(=O)c1nn(-c2ccccc2)c(=O)c2c1cnn2-c1ccc(Cl)cc1 | > 100 µM | –
23 | NNC(=O)c1n[nH]c(=O)c2c1cnn2-c1ccccc1 | > 100 µM | –
